*1 amine or outer side, *2 acyl side, *3 side chain or, on linkers, in order; H or OH if unused. Where a SMILES comes first, the peptide text is derived from it. Bridges are numbered along the chain shown (N, C = ends). [ ]: non-standard residue; d: D form. Trp(5-Cl) = N[C@@H](Cc1c[nH]c2ccc(Cl)cc12)C(=O)O; Phe(3,4-Cl2) = N[C@@H](Cc1ccc(Cl)c(Cl)c1)C(=O)O; Pyridine(2,6-diCH2) = c1cc(C[*:1])nc(C[*:2])c1; mXylylene = c1cc(C[*:1])cc(C[*:2])c1; pXylylene = c1cc(C[*:2])ccc1C[*:1]; Hyp = O=C(O)[C@@H]1C[C@@H](O)CN1; Pen = CC(C)(S)[C@H](N)C(=O)O; Thp = NC1(C(=O)O)CCOCC1; Aib = CC(C)(N)C(=O)O

The target of this assay is T1, GIPR (CHO-K1-hGIPR cells) (Homo sapiens, UniProt P48546).
T1 construct: host or cells: CHO-K1
T1 sequence (P48546 22-466): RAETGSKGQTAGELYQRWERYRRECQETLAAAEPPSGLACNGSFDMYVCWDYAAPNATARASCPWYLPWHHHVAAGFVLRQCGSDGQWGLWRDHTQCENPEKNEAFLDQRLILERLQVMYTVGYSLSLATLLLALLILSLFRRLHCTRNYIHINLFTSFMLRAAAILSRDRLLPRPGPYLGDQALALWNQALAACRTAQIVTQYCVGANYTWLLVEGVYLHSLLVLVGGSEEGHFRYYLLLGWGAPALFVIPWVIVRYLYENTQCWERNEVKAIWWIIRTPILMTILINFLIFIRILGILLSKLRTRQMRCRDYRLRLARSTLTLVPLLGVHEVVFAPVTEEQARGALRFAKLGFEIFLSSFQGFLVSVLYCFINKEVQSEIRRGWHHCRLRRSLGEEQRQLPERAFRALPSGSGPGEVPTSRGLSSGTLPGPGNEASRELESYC
In words: FACS binding assay. The conditions noted are these: competition with 20 nM GIP-057, 4° C. for 1 hour, read-out: pIC50 Category (converted). The method, boiled down: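 Median fluorescence in the APC channel, measured on washed CHO-K1 cells overexpressing human GIPR, was fitted by four-parameter logistic regression against peptide concentration to yield EC50 or IC50 values. Secondary labelling used APC-streptavidin (1 μg/mL, 30 min, ice).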
(In general: A flow cytometer gives signals particle by particle.)
Consider `CC(=O)N[C@@H](CC(=O)O)C(=O)N[C@@H](Cc1c[nH]c2ccccc12)C(=O)N[C@@H](Cc1c[nH]c2ccc(Cl)cc12)C(=O)N1C[C@H](O)C[C@H]1C(=O)N[C@@H](CCC(=O)O)C(=O)N[C@H](CC(C)C)C(=O)N[C@H]1CSCc2cccc(n2)CSC[C@@H](C(N)=O)NC(=O)[C@H](CO)NC(=O)[C@H](CC(C)C)NC(=O)C2(CCOCC2)NC1=O` [GIP-322, Ac-Asp-Trp-5Clw-Hyp-Glu-leu-[Cys(2Lut)-Thp-Leu-Ser-Cys]-NH2] (Ac-DW[Trp(5-Cl)][Hyp]E[dL]C[Thp]LSC-NH2; linker 7-11 via Pyridine(2,6-diCH2)), for which the IC50 was 100 to 794 nM.
For `CC[C@H](C)[C@@H]1NC(=O)[C@H](CC(C)C)NC(=O)C2(CCOCC2)NC(=O)[C@@H](NC(=O)[C@@H](CC(C)C)NC(=O)[C@H](CCC(=O)O)NC(=O)[C@@H]2C[C@@H](O)CN2C(=O)[C@H](Cc2ccc(Cl)c(Cl)c2)NC(=O)[C@H](Cc2ccc(Cl)c(Cl)c2)NC(=O)[C@H](CC(=O)O)NC(C)=O)CSCc2cccc(n2)CSC[C@@H](C(N)=O)NC1=O` [GIP-323, Ac-Asp-Eaa-Eaa-Hyp-Glu-leu-[Cys(2Lut)-Thp-Leu-Ile-Cys]-NH2] (Ac-D[Phe(3,4-Cl2)][Phe(3,4-Cl2)][Hyp]E[dL]C[Thp]LIC-NH2; linker 7-11 via Pyridine(2,6-diCH2)) the value was 100 to 794 nM.
Then `CC[C@H](C)[C@@H]1NC(=O)[C@H](CC(C)C)NC(=O)[C@H](C)NC(=O)[C@@H](NC(=O)[C@H](CC(C)C)NC(=O)[C@H](CCC(=O)O)NC(=O)[C@@H]2CCCN2C(=O)[C@H](Cc2c[nH]c3ccccc23)NC(=O)[C@H](Cc2c[nH]c3ccccc23)NC(C)=O)CSCc2cccc(c2)CSC[C@@H](C(N)=O)NC1=O` [GIP-324, Ac-Trp-Trp-Pro-Glu-Leu-[Cys(3MeBn)-Ala-Leu-Ile-Cys]-NH2] (Ac-WWPELCALIC-NH2; linker 6-10 via mXylylene), with above 1000 nM; and `CC[C@H](C)[C@@H]1NC(=O)[C@H](CC(C)C)NC(=O)[C@H](C)NC(=O)[C@@H](NC(=O)[C@H](CC(C)C)NC(=O)[C@H](CCC(=O)O)NC(=O)[C@@H]2CCCN2C(=O)[C@H](Cc2c[nH]c3ccccc23)NC(C)=O)CSCc2cccc(c2)CSC[C@@H](C(N)=O)NC1=O` [GIP-325, Ac-Trp-Pro-Glu-Leu-[Cys(3MeBn)-Ala-Leu-Ile-Cys]-NH2] (Ac-WPELCALIC-NH2; linker 5-9 via mXylylene), with above 1000 nM.
For `CC[C@H](C)[C@@H]1NC(=O)[C@H](CC(C)C)NC(=O)[C@H](C)NC(=O)[C@@H](NC(=O)[C@H](CC(C)C)NC(=O)[C@H](CCC(=O)O)NC(=O)[C@@H]2CCCN2C(C)=O)CSCc2cccc(c2)CSC[C@@H](C(N)=O)NC1=O` [GIP-326, Ac-Pro-Glu-Leu-[Cys(3MeBn)-Ala-Leu-Ile-Cys]-NH2] (Ac-PELCALIC-NH2; linker 4-8 via mXylylene), the IC50 was above 1000 nM.
For `CC[C@H](C)[C@@H]1NC(=O)[C@H](CC(C)C)NC(=O)[C@H](C)NC(=O)[C@@H](NC(=O)[C@H](CC(C)C)NC(=O)[C@H](CCC(=O)O)NC(C)=O)CSCc2cccc(c2)CSC[C@@H](C(N)=O)NC1=O` [GIP-327, Ac-Glu-Leu-[Cys(3MeBn)-Ala-Leu-Ile-Cys]-NH2] (Ac-ELCALIC-NH2; linker 3-7 via mXylylene) the value was above 1000 nM.
For `CC[C@H](C)[C@@H]1NC(=O)[C@H](CC(C)C)NC(=O)[C@H](C)NC(=O)[C@@H](NC(=O)[C@H](CC(C)C)NC(=O)[C@H](CCC(=O)O)NC(=O)[C@H]2CCCN2C(=O)[C@H](Cc2c[nH]c3ccccc23)NC(=O)[C@H](Cc2c[nH]c3ccccc23)NC(=O)[C@H](CC(=O)O)NC(=O)[C@H](Cc2ccc(O)cc2)NC(=O)[C@@H](N)CCSC)CSCc2cccc(c2)CSC[C@@H](C(N)=O)NC1=O` [GIP-328, H-Met-Tyr-Asp-Trp-Trp-pro-Glu-Leu-[Cys(3MeBn)-Ala-Leu-Ile-Cys]-NH2] (H-MYDWW[dP]ELCALIC-NH2; linker 9-13 via mXylylene) the value was above 1000 nM; for `CC[C@H](C)[C@@H]1NC(=O)[C@H](CC(C)C)NC(=O)[C@H](C)NC(=O)[C@@H](NC(=O)[C@H](CC(C)C)NC(=O)[C@H](CCC(=O)O)NC(=O)[C@@H]2CCCN2C(=O)[C@@H](Cc2c[nH]c3ccccc23)NC(=O)[C@H](Cc2c[nH]c3ccccc23)NC(=O)[C@H](CC(=O)O)NC(=O)[C@H](Cc2ccc(O)cc2)NC(=O)[C@@H](N)CCSC)CSCc2cccc(c2)CSC[C@@H](C(N)=O)NC1=O` [GIP-329, H-Met-Tyr-Asp-Trp-trp-Pro-Glu-Leu-[Cys(3MeBn)-Ala-Leu-Ile-Cys]-NH2] (H-MYDW[dW]PELCALIC-NH2; linker 9-13 via mXylylene), above 1000 nM.
Take `CC[C@H](C)[C@@H]1NC(=O)[C@@H](CC(C)C)NC(=O)[C@H](C)NC(=O)[C@@H](NC(=O)[C@H](CC(C)C)NC(=O)[C@H](CCC(=O)O)NC(=O)[C@@H]2CCCN2C(=O)[C@H](Cc2c[nH]c3ccccc23)NC(=O)[C@H](Cc2c[nH]c3ccccc23)NC(=O)[C@H](CC(=O)O)NC(=O)[C@H](Cc2ccc(O)cc2)NC(=O)[C@@H](N)CCSC)CSCc2cccc(c2)CSC[C@@H](C(N)=O)NC1=O` [GIP-330] (H-MYDWWPELCA[dL]IC-NH2; linker 9-13 via mXylylene): the IC50 is above 1000 nM.
For the compound `CC[C@H](C)[C@@H]1NC(=O)[C@H](CC(C)C)NC(=O)[C@H](C)NC(=O)[C@@H](NC(=O)[C@H](CC(C)C)NC(=O)[C@H](CCC(=O)O)NC(=O)[C@@H]2CCCN2C(=O)[C@H](Cc2c[nH]c3ccccc23)NC(=O)[C@H](Cc2c[nH]c3ccccc23)NC(=O)[C@H](CC(=O)O)NC(=O)[C@H](Cc2ccc(O)cc2)NC(=O)[C@@H](N)CCSC)CSCc2ccc(cc2)CSC[C@@H](C(N)=O)NC1=O` [GIP-331] (H-MYDWWPELCALIC-NH2; linker 9-13 via pXylylene), the IC50 is above 1000 nM.
For `CC[C@H](C)[C@@H]1NC(=O)[C@H](CC(C)C)NC(=O)[C@H](C)NC(=O)[C@@H](NC(=O)[C@H](CC(C)C)NC(=O)[C@H](CCC(=O)O)NC(=O)[C@@H]2CCCN2C(=O)[C@H](Cc2c[nH]c3ccccc23)NC(=O)[C@H](Cc2c[nH]c3ccccc23)NC(=O)[C@H](C)NC(=O)[C@H](Cc2ccc(O)cc2)NC(=O)[C@@H](N)CCSC)CSCc2cccc(c2)CSC[C@@H](C(N)=O)NC1=O` [GIP-332] (H-MYAWWPELCALIC-NH2; linker 9-13 via mXylylene), the IC50 is above 1000 nM.
In the case of `CC[C@H](C)[C@@H]1NC(=O)[C@H](CC(C)C)NC(=O)[C@H](C)NC(=O)[C@@H](NC(=O)[C@H](CC(C)C)NC(=O)[C@H](CCC(=O)O)NC(=O)[C@@H]2CCCN2C(=O)[C@H](Cc2c[nH]c3ccccc23)NC(=O)[C@H](C)NC(=O)[C@H](CC(=O)O)NC(=O)[C@H](Cc2ccc(O)cc2)NC(=O)[C@@H](N)CCSC)CSCc2cccc(c2)CSC[C@@H](C(N)=O)NC1=O` [GIP-333] (H-MYDAWPELCALIC-NH2; linker 9-13 via mXylylene), the IC50 was above 1000 nM.
For `CC[C@H](C)[C@@H]1NC(=O)[C@H](CC(C)C)NC(=O)[C@H](C)NC(=O)[C@@H](NC(=O)[C@H](CC(C)C)NC(=O)[C@H](CCC(=O)O)NC(=O)[C@@H]2CCCN2C(=O)[C@H](C)NC(=O)[C@H](Cc2c[nH]c3ccccc23)NC(=O)[C@H](CC(=O)O)NC(=O)[C@H](Cc2ccc(O)cc2)NC(=O)[C@@H](N)CCSC)CSCc2cccc(c2)CSC[C@@H](C(N)=O)NC1=O` [GIP-334] (H-MYDWAPELCALIC-NH2; linker 9-13 via mXylylene) the value was above 1000 nM.
For `CC[C@H](C)[C@@H]1NC(=O)[C@H](CC(C)C)NC(=O)[C@H](C)NC(=O)[C@@H](NC(=O)[C@H](CC(C)C)NC(=O)[C@H](C)NC(=O)[C@@H]2CCCN2C(=O)[C@H](Cc2c[nH]c3ccccc23)NC(=O)[C@H](Cc2c[nH]c3ccccc23)NC(=O)[C@H](CC(=O)O)NC(=O)[C@H](Cc2ccc(O)cc2)NC(=O)[C@@H](N)CCSC)CSCc2cccc(c2)CSC[C@@H](C(N)=O)NC1=O` [GIP-335] (H-MYDWWPALCALIC-NH2; linker 9-13 via mXylylene), the IC50 is above 1000 nM.
Then `CC[C@H](C)[C@@H]1NC(=O)[C@H](CC(C)C)NC(=O)[C@H](C)NC(=O)[C@@H](NC(=O)[C@H](C)NC(=O)[C@H](CCC(=O)O)NC(=O)[C@@H]2CCCN2C(=O)[C@H](Cc2c[nH]c3ccccc23)NC(=O)[C@H](Cc2c[nH]c3ccccc23)NC(=O)[C@H](CC(=O)O)NC(=O)[C@H](Cc2ccc(O)cc2)NC(=O)[C@@H](N)CCSC)CSCc2cccc(c2)CSC[C@@H](C(N)=O)NC1=O` [GIP-336] (H-MYDWWPEACALIC-NH2; linker 9-13 via mXylylene), with above 1000 nM; and `CSCC[C@H](N)C(=O)N[C@@H](Cc1ccc(O)cc1)C(=O)N[C@@H](CC(=O)O)C(=O)N[C@@H](Cc1c[nH]c2ccccc12)C(=O)N[C@@H](Cc1c[nH]c2ccccc12)C(=O)N1CCC[C@H]1C(=O)N[C@@H](CCC(=O)O)C(=O)N[C@@H](CC(C)C)C(=O)N[C@H]1CSCc2cccc(c2)CSC[C@@H](C(N)=O)NC(=O)[C@H](C)NC(=O)[C@H](CC(C)C)NC(=O)[C@H](C)NC1=O` [GIP-337] (H-MYDWWPELCALAC-NH2; linker 9-13 via mXylylene), with above 1000 nM.
Consider `CC[C@H](C)[C@@H]1NC(=O)[C@H](CC(C)C)NC(=O)C(C)(C)NC(=O)[C@@H](NC(=O)[C@H](CC(C)C)NC(=O)[C@H](CCC(=O)O)NC(=O)[C@@H]2CCCN2C(=O)[C@H](Cc2c[nH]c3ccccc23)NC(=O)[C@H](Cc2c[nH]c3ccccc23)NC(=O)[C@H](CC(=O)O)NC(C)=O)C(C)(C)SCc2cccc(c2)CSC[C@@H](C(N)=O)NC1=O` [GIP-338, Ac-Asp-Trp-Trp-Pro-Glu-Leu-[Pen(3MeBn)-Aib-Leu-Ile-Cys]-NH2] (Ac-DWWPEL[Pen][Aib]LIC-NH2; linker 7-11 via mXylylene), for which the IC50 was above 1000 nM.

The values above are taken from patent US20250296971A1, “GASTRIC INHIBITORY PEPTIDE RECEPTOR LIGANDS” (priority 2021, published 2025).
